For experiment [1], the target named is T1, PqsE (Pseudomonas aeruginosa, UniProt P20581).
T1 construct: made in house
The conditions noted are these: in words; cited from earlier work.

The target in experiment [2] is T2, PqsE–RhlR interaction (Pseudomonas aeruginosa, UniProt P20581).
T2 construct: made in house
The experiment is described as follows: PqsE–RhlR interaction (in vitro pull-down). It counts as binding. The conditions noted are these: in words. The procedure: (§1) 6xHis-PqsE proteins were purified for biochemical assays (tagged) and crystallography (tag removed), as described previously.[24] Enzyme activities of purified 6xHis-PqsE variants were measured as previously reported with MU-butyrate as the substrate.[25] Fluorescence polarization assays with the BB562 active site probe were performed as described.[24] The melting temperature (Tm) of each purified 6xHis-PqsE variant was measured using DSF as described previously.[24] Interaction between PqsE and RhlR proteins in vitro was measured as described previously using pull-down assays.[24] Pyocyanin production by P. aeruginosa PA14 strains carrying pqsE variants on the pUCP18 plasmid was measured as described.[24] The ability of PqsE variants to increase RhlR transcription factor activity in an E. coli reporter assay was assessed as previously described.[24] All small molecule syntheses and characterization are described in the Supporting Information.

In experiment [3] the target is T1, PqsE. Kind of experiment: Competitive fluorescence polarization with the BB562 active site probe. As to conditions: competition with BB562 active site probe for binding to PqsE; one experiment performed in triplicate.
From the text: (a) Structures of the precursor molecules BB391 and BB393 and the hybrid derivative BB580. Positions denoted 1, 2, and 3 were derivatized to explore the binding affinity for the PqsE active site. […] Polarization value for PqsE-BB562 in the absence of a competitor is defined as 100% probe bound. All polarization values were background-subtracted by the reading for the probe in the absence of PqsE (background fluorescence). […] Both the BB584 molecule and key PqsE amino acid sidechains are shown as sticks. Amino acid sidechain carbons are depicted in gray and BB584 carbons are shown in tan. Iron atoms and water molecules are shown as orange and green spheres, respectively. Oxygen and nitrogen atoms are in red and blue, respectively. Hydrogen bonds are shown as dotted yellow lines.
as §1, with “Information. […]” for “Information.”
a Design of Hybrid Scaffold b Core Aromatic Group […]
Engaging Hydrophobic Groove […]
the amide bond orientation. b) Optimization of “position 2”, the core aromatic group. c) Optimization of “position 3”, the hydrophobic tail. Competition curves with the BB562 active site fluorescent probe were f it from the average of triplicates and erro r bars represent standard deviation s. Polarization value for PqsE-BB562 in the absence of competitor is defined as 100% Probe Bound. All polarization values were background-subtracted by the reading for the probe in the absence of PqsE (background fluorescence).
In general terms: Polarisation of emitted light reports the rotation of a fluorescent probe.

Experiment [4] has as its target PqsE(D73A) (Pseudomonas aeruginosa, UniProt P20581, D73A). The conditions noted are these: read-out: BB562 Binding Kapp; PqsE variant D73A; 2 µM MnCl2. The method, then:
(§2) (a) Structure of PqsE(E182W) (blue) overlaid with that of WT PqsE (PDB: 2Q0I, gray). The active site iron atoms are shown in orange. […] (b) Structure of PqsE(E182W/E280A) (maroon) overlaid with that of WT PqsE (as in a). In panels a and b, residue E280 is shown in stick representation. […] Kapp was determined in two independent experiments performed in triplicate. (d) Hydrolysis of 4-methylumbelliferyl butyrate (MU-butyrate) by the designated purified PqsE proteins. Values are represented as % activity of WT PqsE protein. Results are the average of two independent experiments performed in triplicate. Error bars represent standard deviations. (e) First derivative plots (dF/dT is defined as the change in SYPRO Orange fluorescence divided by change in temperature) of melting curves for the designated PqsE proteins. The peak of each curve is defined as the Tm of that protein.
as §1
(§3) a Stability of PqsE Proteins WT
(§4) Hydrolysis of MU-butyrate
(§5) Fig. S3. Biochemical characterization of purified PqsE variants. a) First derivative plots of melt curves for
(§6) PqsE prot eins. All proteins were tested at 5 µM with 200 µM MnCl 2. dF/dT indicates the change in SYPRO
(§7) Orange fluorescence divided by the change in tempera ture.
(§8) Results are the average of two independent experiments performed in triplicate.
(§9) Error bars represent standard deviations.

Experiment [5] concerns the target PqsE(E182W) (Pseudomonas aeruginosa, UniProt P20581, E182W). The method, then:
as §2, §1, §3, §4, §5, §6, §7, §8, §9

Experiment [6] concerns the target PqsE(NI/E280A) (Pseudomonas aeruginosa, UniProt P20581, E280A/R243A/R246A/R247A). As to conditions: read-out: BB562 Binding Kapp; PqsE variant NI/E280A; 2 µM MnCl2. The method, then: as §2, §1, §3, §4, §5, §6, §7, §8, §9
The target of experiment [7] is PqsE(D73A/E280A) (Pseudomonas aeruginosa, UniProt P20581, D73A/E280A). The conditions noted are these: read-out: BB562 Binding Kapp; PqsE variant D73A/E280A; 2 µM MnCl2. The procedure: as §2, §1, §3, §4, §5, §6, §7, §8, §9
Experiment [8] concerns the target PqsE(E182W/E280A) (Pseudomonas aeruginosa, UniProt P20581, E182W/E280A). The method, then: as §2, §1, §3, §4, §5, §6, §7, §8, §9
The target in experiment [9] is PqsE(D73A/NI) (Pseudomonas aeruginosa, UniProt P20581, D73A/R243A/R246A/R247A). The conditions noted are these: read-out: BB562 Binding Kapp; PqsE variant D73A/NI; 2 µM MnCl2; error ND (could not be calculated). The procedure:
as §2, §1, §3, §4, §5, §6, §7, §8, §9

Experiment [10] concerns the target PqsE(E280A) (Pseudomonas aeruginosa, UniProt P20581, E280A). As to conditions: read-out: BB562 Binding Kapp; PqsE variant E280A; 2 µM MnCl2. The method, then: as §2, §1, §3, §4, §5, §6, §7, §8, §9
The target of experiment [11] is PqsE(D73A/E182W) (Pseudomonas aeruginosa, UniProt P20581, D73A/E182W). The conditions noted are these: read-out: BB562 Binding Kapp; PqsE variant D73A/E182W; 2 µM MnCl2; error ND (could not be calculated). The procedure:
as §2, §1, §3, §4, §5, §6, §7, §8, §9

Experiment [12] concerns the target WT PqsE (Pseudomonas aeruginosa, UniProt P20581). The conditions noted are these: read-out: BB562 Binding Kapp, 2 µM MnCl2, two independent experiments in triplicate. The procedure: as §2, §1, §3, §4, §5, §6, §7, §8, §9
Experiment [13] has as its target PqsE(E182W/NI) (Pseudomonas aeruginosa, UniProt P20581, E182W/R243A/R246A/R247A). The conditions noted are these: read-out: BB562 Binding Kapp; PqsE variant E182W/NI; 2 µM MnCl2; error ND (could not be calculated). The method, then:
as §2, §1, §3, §4, §5, §6, §7, §8, §9

The target of experiment [14] is PqsE(NI) (Pseudomonas aeruginosa, UniProt P20581, R243A/R246A/R247A). As to conditions: read-out: BB562 Binding Kapp; PqsE variant NI (R243A/R246A/R247A); 2 µM MnCl2. The procedure: as §2, §1, §3, §4, §5, §6, §7, §8, §9

A value given as a limit tells only on which side of the number the result lay.

Turning to `O=C(Nc1cccc(-c2ccn[nH]2)c1)c1cccc2cn[nH]c12` [BB391], the “competition with the BB562 active site probe for binding to PqsE” value in [1] was “mid-nanomolar”. The “inhibition/disruption of the PqsE–RhlR interaction” value (from here on “inhibition/disruption”) in [2] was “none of the three compounds disrupt the PqsE–RhlR interaction”. Also, the EC50 – broadly, the midpoint of the concentration-response curve – in [3] came to 160 ± 54 nM.

Regarding `CCC(C)(CNC(=O)Nc1ccc(C(=O)Nc2nccs2)cc1)N1CCOCC1` (stereo not drawn) [BB393], the “competition with the BB562 active site probe for binding to PqsE” value in experiment [1] is reported as “mid-nanomolar”. The “inhibition/disruption” value in [2] was “none of the three compounds disrupt the PqsE–RhlR interaction”. Moreover, the half-maximal effective concentration (EC50) in experiment [3] was determined as 93 ± 29 nM.

On to `O=C(NCCCn1cc(-c2ccc(NC(=O)c3cccc4cn[nH]c34)cc2)nn1)c1ccc2c(c1)C(=O)OC21c2ccc(O)cc2Oc2cc(O)ccc21` [BB562], for which the Kd is 507 ± 380 nM in experiment [4]; 5730 ± 4000 nM in experiment [5] (read-out: BB562 Binding Kapp, PqsE variant E182W, 2 µM MnCl2); 669 ± 220 nM in experiment [6]; 468 ± 300 nM in experiment [7]; 418 ± 160 nM in experiment [8] (read-out: BB562 Binding Kapp, PqsE variant E182W/E280A, 2 µM MnCl2); 564 nM in experiment [9]. Moreover, the Kd in [10] was 210 ± 90 nM; in experiment [11] it was 8120 nM; in experiment [12], 416 ± 170 nM; in experiment [13], 4330 nM; in experiment [14] it was 428 ± 100 nM. Moreover, the “binding affinity for the active site fluorescent probe” value in experiment [5] (PqsE(E182W), in words, relative to WT PqsE) is recorded as “reduced binding affinity”; in experiment [8] (PqsE(E182W/E280A), in words, relative to WT PqsE), “WT binding affinity”.

Consider `CCC(C)(CNC(=O)Nc1ccc(NC(=O)c2cccc3cn[nH]c23)cc1)N1CCOCC1` (stereo not drawn) [BB580], for which the response in experiment [3] was half-maximal at 99 nM (EC50).

For the compound `CCC(C)(CNC(=O)Nc1ccc(C(=O)Nc2cccc3cn[nH]c23)cc1)N1CCOCC1` (stereo not drawn) [BB581], a half-maximal response in experiment [3] (EC50) required 281 nM.

`O=C(NCc1cnccn1)Nc1ccc(NC(=O)c2cccc3cn[nH]c23)cc1` [BB582]: the midpoint of the response in experiment [3], the EC50, lay at 302 ± 141 nM.

With `O=C(NCc1ccccc1)Nc1ccc(NC(=O)c2cccc3cn[nH]c23)cc1` [BB583], in experiment [3], it took 71 nM to reach a half-maximal effect (EC50).

As to `CC(C)(C)CNC(=O)Nc1ccc(NC(=O)c2cccc3cn[nH]c23)cc1` [BB584], in experiment [2], the “inhibition/disruption” value is “none of the three compounds disrupt the PqsE–RhlR interaction”. In [3], this compound displayed a 50% effective concentration (EC50) of 34 nM.

`CCC(C)(CNC(=O)Nc1cnc(NC(=O)c2cccc3cn[nH]c23)s1)N1CCOCC1` (stereo not drawn) [BB585] showed a half-maximal effective concentration (EC50) in experiment [3] of over 1000 nM.

Consider `CCC(C)(CNC(=O)Nc1cc(NC(=O)c2cccc3cn[nH]c23)[nH]n1)N1CCOCC1` (stereo not drawn) [BB586], for which the EC50 in [3] is over 1000 nM.

In experiment [3], `CCC(CNC(=O)Nc1ccc(NC(=O)c2cccc3cn[nH]c23)cc1)N1CCOCC1` (stereo not drawn) [BB587] had an EC50 of 273 nM.

Turning to `CC(CNC(=O)Nc1ccc(NC(=O)c2cccc3cn[nH]c23)cc1)N1CCOCC1` (stereo not drawn) [BB588], the EC50 in experiment [3] was 290 nM.

The compound `CCC(C)(CNC(=O)Nc1ccc(NC(=O)c2cccc3cn[nH]c23)nc1)N1CCOCC1` (stereo not drawn) [BB589] had a 50% effective concentration (EC50) in experiment [3] of 608 ± 647 nM.

The values are drawn from paper PMC9454246, “The PqsE Active Site as a Target for Small Molecule Antimicrobial Agents against Pseudomonas aeruginosa” (Biochemistry, 2022).
